Measured values published in ChEMBL document CHEMBL3507680, “University of Dundee, Gates Library screen for HepG2 cell viability”.

Experiment: Human HepG2 cell viability assay in 384 well format
Format: toxicity, cell-based
Design: dose 125 nL, time 70.5 hour; concentration not given beside the values
Conditions: HepG2 cells, read-out: Inhibition

Row | SMILES | cytotoxicity at 70.5 h
1 | CC(=O)Nc1cc(-c2cccc(F)c2F)n[nH]1 | -5.76%
2 | COC(=O)c1ccc(NC(C)c2ccc3c(c2)CCC(=O)N3)nn1 (stereo not drawn) | -8.66%
3 | CC(C)CC(=O)N(C)Cc1nc(C(F)(F)F)cs1 | -9.65%
4 | CC(=O)N1CC(C)CN(C(=O)c2cnccn2)c2ccccc21 (stereo not drawn) | -12.2%
5 | O=S(=O)(NCCc1ccccc1F)N1CCOCC1 | -3.51%
6 | c1cc2c(cc1CSCc1noc(C3CC3)n1)OCCO2 | -13.8%
7 | Cc1ccc(S(=O)(=O)NCCc2nnc[nH]2)c2cccnc12 | 15.2%
8 | CCOc1nnc(CN2CCN(CCOC)C(CC)C2)s1 (stereo not drawn) | 12.8%
9 | COCCCN1Cc2cccc(NC(=O)C(C)(C)C)c2C1 | 31.1%
10 | CC(CNC1CCN(c2ccccn2)CC1)Oc1ccc(F)cc1 (stereo not drawn) | 23.5%
11 | CCOc1nnc(CN2CCN(CCOC)C(C)C2)s1 (stereo not drawn) | -7.83%
12 | Cn1cnc(S(=O)(=O)N2CCCc3cc(F)cc(F)c32)c1Cl | 10.5%
13 | Cn1cnc(S(=O)(=O)N2CCCc3cccc(F)c32)c1Cl | -0.174%
14 | CC(=O)Nc1ccc(CNCC(O)c2ccccc2)cc1 (stereo not drawn) | -2.04%
15 | CCN(CC)c1ccc(CNC(=O)N2CCC(C#N)CC2)cc1 | -14.6%
16 | Cc1cc(CN(C)C(=O)C(c2ccccc2)N2CCSCC2)no1 (stereo not drawn) | 8.49%
17 | CC(C)NC(=O)CCNC(=O)CCc1cc(Cl)cs1 | -8.99%
18 | N#Cc1cccc(NC(=O)N(CC(F)F)C2CC2)c1 | -2.73%
19 | NS(=O)(=O)c1cnn(CC(=O)Nc2c(Cl)cccc2Cl)c1 | -5.76%
20 | Cc1cc(OCCC(=O)Nc2cccc(F)c2)nnc1C | 8.29%

Row | SMILES | cytotoxicity at 70.5 h
21 | Cc1nc(C)c(C(C)NCc2c(C)nn(CC(C)C)c2N(C)C)s1 (stereo not drawn) | -3.31%
22 | CS(=O)(=O)NCCCNC(=O)c1cnc(-c2ccsc2)s1 | -6.18%
23 | Cc1cc(OCC(=O)NCc2ccc(F)cc2)nnc1C | -6.01%
24 | O=C(NCCCn1ccccc1=O)c1cnc(-c2ccsc2)s1 | -11.3%
25 | COCC(O)CN(C)c1cc(C(F)(F)F)nc(-c2cccnc2)n1 (stereo not drawn) | -1.69%
26 | Cc1cc(NC(=O)NCc2ccncc2)ccc1OC(C)C | -3.47%
27 | Cc1cc(OCCC(=O)NCc2ccc(F)cc2)nnc1C | 0.423%
28 | O=C(NCCc1cc(F)ccc1F)NC(CO)c1ccccc1 (stereo not drawn) | 19.3%
29 | O=C(O)c1cc(/C=C/c2ccc3ccccc3c2)ncn1 | -7.92%
30 | CCC1CN(C)c2ccccc2CN1C(=O)CCn1cncn1 (stereo not drawn) | -7.82%
31 | CCC1CN(C)c2ccccc2CN1CCn1cncn1 (stereo not drawn) | -9.88%
32 | CC(C)CN(C(=O)Nc1cccnc1)C1CC1 | -7.03%
33 | CC(C)COCCNC1CCN(c2ccccn2)CC1 | 0.205%
34 | O=C(Nc1cccnc1)N(Cc1ccccc1)C1CC1 | -15.3%
35 | Cc1csc(C(C)(C)NCC(=O)N(C)Cc2ccc(C)o2)n1 | 4.78%
36 | Cc1ccc(CN(C)C(=O)CNC(C)(C)c2noc(C(C)(C)C)n2)o1 | -0.348%
37 | COc1ncnc(N)c1CNCc1ccccc1-n1cccn1 | 6.74%
38 | O=C(NCc1ccc(-n2cncn2)nc1)c1cnccn1 | 7.67%
39 | O=C(NCc1ccc(-n2cncn2)nc1)c1cc(Cl)ccn1 | 12.5%
40 | Cc1csc(N2CCN(Cc3ccccn3)CC2)n1 | -9.56%

Row | SMILES | cytotoxicity at 70.5 h
41 | CCCN(CC(=O)N(C)C)C(=O)c1ccc(-c2nc(C)cs2)cc1 | -6.25%
42 | Cc1cccc(COc2ccc(C(C)NS(N)(=O)=O)cc2)c1 (stereo not drawn) | -8.27%
43 | COc1ccc2c(c1)CCCN(CC(=O)NCC1CCCO1)C2 (stereo not drawn) | -5.84%
44 | CC(=O)N1CCC(NC(=O)CN2CCCc3c(C)ccc(F)c32)CC1 | -9.21%
45 | Cc1ccc(F)c2c1CCCN2CC(=O)NC1CCS(=O)(=O)C1 (stereo not drawn) | -4.5%
46 | CCc1nnc(C(C)N2CCC(NC(=O)C3CCCCC3)CC2)o1 (stereo not drawn) | -7.39%
47 | CSc1ncccc1C(=O)Nc1ccc(Cn2ccccc2=O)cc1 | 18.3%
48 | O=C(NCC[S+]([O-])Cc1ccccc1)c1ccc2[nH]c(=O)[nH]c2c1 (stereo not drawn) | -3.54%
49 | Cc1ccc(CNS(=O)(=O)CCCC#N)cc1F | -4.22%
50 | O=C(NCC[S+]([O-])c1ccccc1)c1ccc2[nH]c(=O)[nH]c2c1 (stereo not drawn) | -6.4%
51 | Cc1cc(CNS(C)(=O)=O)ccc1N(C)C | -7.39%
52 | O=C(NCC(O)Cc1ccccc1)c1ccc2[nH]c(=O)[nH]c2c1 (stereo not drawn) | -6.14%
53 | Cc1cc(C)n(C2CN(CCC(=O)NCCc3ccccc3)C2)n1 | -1.03%
54 | Clc1ccccc1CN1CCc2nc(C3CCCCN3)ncc2C1 (stereo not drawn) | -18.6%
55 | O=C(CCC1CCCC1)NCCn1nc(C2CCNC2)c2nccnc21 (stereo not drawn) | 34.9%
56 | Cc1cccc(COc2ccc(C(C)N)cc2)c1 (stereo not drawn) | -4.64%
57 | COc1ccc(CN(Cc2cccnc2)CC2CCCO2)c(OC)c1 (stereo not drawn) | -5.79%
58 | CN(C)c1ccc(CN(CCCn2ccnc2)Cc2c[nH]cn2)cc1 | -13.5%
